Legend:
[1] = test system: PC-3; test: 6FGA uptake in PC-3 cells, with and without transporter inhibitors or sodium; format: cell-based, human; conditions: PC3 cell line
Method: See FIG. 2A-D. Its transport properties were evaluated in two human metastatic cancer cell lines: triple negative breast cancer MDA-MB-231 and human prostate cancer (PC-3). […] See also FIG. 5A, FIG. 5B, and FIG. 6.
The assays are performed from a modified protocol as we have done previously, and from flow cytometry formats (Zou ry al. (2005) J Biochem Biophys Methods 64:207-15; Landau et al. (2007) American journal of physiology Endocrinology and metabolism 293:E237-45). In brief, cells are grown to confluence using recommended growth media in 96-well plates. […] The cells are detached with trypsin and resuspended in PBS. The cells are analysed using flow cytometry with the Cy5.5 filter set (excitation 685 nm, exmission 710 nm) gated for 250,000 counts.

[2] = rat, in vivo; cited from earlier work
[3] = test system: SGLTs and GLUTs; conditions: prior work; cited from earlier work
[4] = test system: metastatic prostate cancer; conditions: men with metastatic prostate cancer, phase III; cited from earlier work

| Structure (SMILES) | effect of inhibitor on 6FGA uptake [1] | transport by SGLTs / GLUTs [3] | also measured |
| --- | --- | --- | --- |
| O=C(CCc1ccc(O)cc1)c1c(O)cc(O)cc1O[C@@H]1O[C@H](CO)[C@@H](O)[C@H](O)[C@H]1O [phlorizin] | blocked | – | – |
| O=C[C@H](O)[C@@H](O)[C@H](O)[C@H](O)C[18F] [[18F]6FDG, 18F-labelled 6-fluoro-6-deoxy-D-glucose] | – | transported by SGLTs and GLUTs | activity in the bladder [2]: no activity was evident in the bladder; renal handling [2]: reabsorbed in proximal tubules of kidneys |
| OC[C@H]1OC(O)[C@H]([18F])[C@@H](O)[C@@H]1O (stereo partly drawn) [[^18F]FDG, ^18F-labeled 2-fluoro-2-deoxy-D-glucose] | – | poorly transported by SGLTs | – |
| C=C1[C@@H](C)[C@H]2[C@H](Cc3ccccc3)NC(=O)[C@]23OC(=O)/C=C/[C@H](O)CCC[C@@H](C)C/C=C/[C@H]3[C@@H]1O [cytochalasin B] | not blocked | – | – |
| [Cl][223Ra][Cl] [Xofigo, ^223RaCl2] | – | – | adverse events [4]: low rates of myelosuppression and few adverse events; overall survival [4]: improve overall survival |

Reference: US20210101905A1, “Development of Imaging and Therapeutic Glucose Analogues for Sodium Dependent Glucose Transporters” (Llnited States Government as represented by the Department …, priority 2019, published 2021)
